The inhibition is the share of the control response that was lost under treatment.

The record followed here is publication PMC4832243, “Discovery of Potent VEGFR-2 Inhibitors based on Furopyrimidine and Thienopyrimidne Scaffolds as Cancer Targeting Agents” (Scientific Reports, 2016).

In one data set the target is c-Raf (Homo sapiens, UniProt P04049). Description: In vitro multiple-kinase inhibition assay, c-Raf. Format: biochemical. As for the experimental part: (§1) In vitro multiple-kinase inhibition assay. […] Kinase enzymatic activity of the tested compounds was evaluated against a reference kinase inhibitor at 10 μM (Table 2).
c-Raf, sequence (P04049 whole entry, species assumed): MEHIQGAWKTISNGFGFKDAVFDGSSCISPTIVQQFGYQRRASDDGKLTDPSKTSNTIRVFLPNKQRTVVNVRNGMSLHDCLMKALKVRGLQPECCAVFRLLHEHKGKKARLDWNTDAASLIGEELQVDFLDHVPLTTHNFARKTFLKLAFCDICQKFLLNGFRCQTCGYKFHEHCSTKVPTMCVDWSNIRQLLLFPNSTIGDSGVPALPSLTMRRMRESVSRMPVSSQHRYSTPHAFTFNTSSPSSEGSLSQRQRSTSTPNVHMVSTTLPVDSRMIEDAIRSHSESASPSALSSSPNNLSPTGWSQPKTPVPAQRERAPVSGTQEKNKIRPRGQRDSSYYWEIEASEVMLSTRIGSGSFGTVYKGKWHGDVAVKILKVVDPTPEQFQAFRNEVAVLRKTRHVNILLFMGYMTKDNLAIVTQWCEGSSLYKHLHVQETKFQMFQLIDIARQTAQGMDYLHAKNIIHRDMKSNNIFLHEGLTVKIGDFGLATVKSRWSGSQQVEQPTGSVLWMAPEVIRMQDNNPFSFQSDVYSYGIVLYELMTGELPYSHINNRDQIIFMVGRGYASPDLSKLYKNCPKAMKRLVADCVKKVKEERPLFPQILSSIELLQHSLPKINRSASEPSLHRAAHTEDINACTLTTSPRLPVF
(§2) The multiple kinases activity at single dose concentration of 10 μM was performed, c-Kit, c-Raf, c-Src, RET served as the enzyme source. […] Kinase-Glo Plus Luminescence kinase assay kit (Promega#V3772), ADP-Glo Luminescence assay kit was used for c-kit assay (Supplementary). […]
(§3) mM MgCl2, 0.1 mg/ml BSA, 1 mM DTT, 10 µM ATP, Kinase substrate and VEGFR. After the enzymatic reaction, 50 µl of Kinase-Glo Plus Luminescence kinase assay solution (Promega) was added to each reaction and incubate the plate for 5 minutes at room temperature.
(§4) Luminescence signal was measured using a BioTek Synergy 2 microplate reader. VEGFR activity assays were performed in duplicate at each concentration.
(§5) The luminescence data were analyzed using the computer software, Graphpad Prism. The difference between luminescence intensities in the absence of VEGFR (Lut) and in the presence of VEGFR (Luc) was defined as 100 % activity (Lut – Luc). Using luminescence signal (Lu) in the presence of the compound, % activity was calculated as:
(§6) % activity = {(Lut - Lu)/(Lut - Luc)}×100%, where Lu= the luminescence intensity in the […]
(§7) IC50 determination for inhibitor against VEGFR was calculated. The values of % activity versus a series of compound concentrations (1 nM - 10 nM - 100 nM - 1 µM - 10 µM) were then […]
(§8) or Hill coefficient. The IC50 value was determined by the concentration causing a half-maximal […]
(§9) In vitro multiple-kinase inhibition assay
(§10) Luminescence signal was measured using a BioTek Synergy 2 microplate reader […]
(§11) The luminescence data were analyzed using the same computer software and the same protocol

The test system of another data set is active caspase 3. Description: Immunohistochemistry of EAC solid tumor sections, active caspase 3. The settings on record: oral treatment of EAC-bearing mice.
Another data set concerns CD31 and CD34 (% MVD). As to the kind of experiment: Immunohistochemistry of EAC solid tumor sections, microvessel density (CD31, CD34). To be noted: oral treatment of EAC-bearing mice.
The nature of data set [1]: Toxicity: vital organs' indices and histopathology in EAC solid tumor bearing mice. The class given is in vivo, Swiss albino mice. The settings on record: for Brain Index / Heart Index / Kidney Index / Liver Index: mean ± SD (n = 6).
Data set [2] deals with Ehrlich ascites carcinoma (EAC) solid tumor. Description: In vivo anticancer activity, EAC solid tumor murine model. Also noted: species or system Swiss albino mice. To be noted: for TGI (%): once daily for 8 consecutive days; for Histopathological examination of EAC tumor sections (necrosis): hematoxylin-eosin, 40x. How it is done: Animals. Female Swiss albino mice weighing 15–20 g were used in the present study. They were obtained from the animal breeding laboratory, National Cancer Institute (NCI), Cairo University, Egypt. Animals were kept in our animal facility, faculty of pharmacy, Ain Shams university at 25 ± 2 °C and a relative humidity of 40–45% with alternative day and night cycles of 12 h each. Animals had free access to pellet food and water ad libitum. Standard diet pellets (El-Nasr, Abu Zaabal, Egypt) contained not less than 20% protein, 5% fiber, 3.5% fat, 6.5% ash and a vitamin mixture. Animal care and experiments were conducted in accordance with the protocols approved by the Ethics Research Committee, Faculty of Pharmacy, Ain Shams University, following the Institutional Animal Care and Use Committee guidelines.
Tumor cells preparation and transplantation. Ehrlich ascites carcinoma (EAC) cells were obtained from NCI, Cairo University, Egypt. EAC cells were maintained in the ascitic form in Swiss albino mice by intraperitoneal transplantation of each mouse every 10 days. Ascitic fluid was drawn from tumor-bearing mice at the log phase (7–8th day of tumor bearing) of the tumor cells. The freshly drawn fluid was diluted with ice-cold sterile isotonic saline. 200 μl tumor cell suspension containing 2 × 10^6 tumor cells were then subcutaneously injected in each mouse.
Experimental design. Swiss albino mice were divided into six groups (n = 6 per group).
Evaluation of effectiveness. Tumor growth curve was drawn according to the change in tumor volume from first day of treatment (day 0) till day 7. Longest and shortest diameters of the solid tumor were monitored using a digital vernier caliper. Tumor volume (TV) of each animal was calculated using the following formula: […]
Tumor growth inhibition (TGI) was calculated as follows.
RTV = (Tumor volume at the day of measurement)/Tumor volume at the initial day.
Histopathological Examination
thickness by slidge microtome.
graded ethanol solutions.

The target of a further data set is c-Kit (Homo sapiens, UniProt P10721). As to the kind of experiment: In vitro multiple-kinase inhibition assay, c-Kit (ADP-Glo). Format: biochemical. As for the experimental part:
as §1, §2, §3, §4, §5, §6, §7, §8, §9
The assay was performed using the same conditions for VEGFR-2 activity assay (section 5.2.1.1). The assays for c-Kit was an exception, it was performed using ADP-Glo Kinase assay reagents (Promega). It measures kinase activity by quantitating the ADP amount produced from the enzymatic reaction. The luminescent signal from the assay is correlated with the amount of ADP present and is directly correlated with the amount of kinase activity. Other conditions are same to the previous section except the final reaction volume was reduced to 25 µl. After the 40 min kinase reaction at 30 °C, 25 µl of ADP-Glo reagent was added and incubated for 45 min at room temperature followed by another 50 min incubation with 50 µl of Kinase detection mixture.
as §10, §11
A general note: In ADP-Glo the light output rises with the ADP produced.

Data set [3] concerns VEGF-induced vascular permeability (Evans Blue extravasation). As to the kind of experiment: Miles vascular permeability assay. To be noted: in vivo; 10 mg/kg (Fig. 15). Further details: species or system mice. How it is done: Miles Vascular Permeability Assay. One to two days prior to the experiment, mice were shaved to expose the skin. Mice were anesthetized with intra-peritoneal injection of Avertin. A sterile solution of 1% Evans Blue (EB) in PBS was prepared and 100 μl was injected IV into the tail vein, using a needle (small gauge, 27–30) at a 10–15 degree angle. The animals were then left for (30–60) min. VEGF (50 μl of 1 ng/μl) and 50 μl of PBS with 0.05% gelatin were injected intradermally using a 30-gauge needle into the skin overlying the back. After 20 min, the animals were sacrificed by cervical dislocation that is recommended to limit significant interference with vascular permeability. The skin was opened, exposed and representative pictures were taken to assess the intensity of EB […]. The Formamide/EB mixture was centrifuged and supernatant absorbance was measured at 600 nm (Shimadzu Spectrophotometer, UV-1601; Japan). extravasation was calculated as ng EB per mg tissue.

A further data set has as its target RET (Homo sapiens, UniProt P07949). Description: In vitro multiple-kinase inhibition assay, RET. The class given is biochemical. How it is done: as §1, §2, §3, §4, §5, §6, §7, §8, §9, §10, §11
In another data set the target is c-Src (Homo sapiens, UniProt P12931). Description: In vitro multiple-kinase inhibition assay, c-Src. Format: biochemical. How it is done:
as §1, §2, §3, §4, §5, §6, §7, §8, §9, §10, §11

c-Kit, sequence (P10721 26-976): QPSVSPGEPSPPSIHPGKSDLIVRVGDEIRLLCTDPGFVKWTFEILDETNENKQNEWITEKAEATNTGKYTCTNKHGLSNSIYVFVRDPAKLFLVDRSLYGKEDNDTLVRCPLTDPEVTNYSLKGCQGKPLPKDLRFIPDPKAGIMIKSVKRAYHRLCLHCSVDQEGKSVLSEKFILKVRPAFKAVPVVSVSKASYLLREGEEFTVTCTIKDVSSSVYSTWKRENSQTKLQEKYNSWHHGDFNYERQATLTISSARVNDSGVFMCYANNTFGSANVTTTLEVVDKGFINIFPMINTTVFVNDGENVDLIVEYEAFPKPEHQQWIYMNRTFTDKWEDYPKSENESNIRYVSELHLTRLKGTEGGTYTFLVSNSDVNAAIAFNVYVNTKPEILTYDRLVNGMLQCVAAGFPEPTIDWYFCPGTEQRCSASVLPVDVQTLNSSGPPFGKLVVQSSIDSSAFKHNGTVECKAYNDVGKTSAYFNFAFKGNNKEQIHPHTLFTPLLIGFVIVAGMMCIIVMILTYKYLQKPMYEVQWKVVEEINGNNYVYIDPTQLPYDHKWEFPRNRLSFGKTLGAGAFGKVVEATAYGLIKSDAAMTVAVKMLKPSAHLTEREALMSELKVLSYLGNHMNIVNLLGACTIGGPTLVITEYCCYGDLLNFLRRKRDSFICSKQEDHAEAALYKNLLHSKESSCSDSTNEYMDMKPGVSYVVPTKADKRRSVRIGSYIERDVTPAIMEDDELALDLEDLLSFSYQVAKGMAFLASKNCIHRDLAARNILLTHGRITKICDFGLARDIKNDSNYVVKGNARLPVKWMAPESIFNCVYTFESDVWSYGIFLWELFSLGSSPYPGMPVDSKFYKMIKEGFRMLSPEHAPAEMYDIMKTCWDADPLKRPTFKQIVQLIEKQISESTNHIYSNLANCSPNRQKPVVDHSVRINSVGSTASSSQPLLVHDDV
RET, sequence (P07949 29-1114, species assumed): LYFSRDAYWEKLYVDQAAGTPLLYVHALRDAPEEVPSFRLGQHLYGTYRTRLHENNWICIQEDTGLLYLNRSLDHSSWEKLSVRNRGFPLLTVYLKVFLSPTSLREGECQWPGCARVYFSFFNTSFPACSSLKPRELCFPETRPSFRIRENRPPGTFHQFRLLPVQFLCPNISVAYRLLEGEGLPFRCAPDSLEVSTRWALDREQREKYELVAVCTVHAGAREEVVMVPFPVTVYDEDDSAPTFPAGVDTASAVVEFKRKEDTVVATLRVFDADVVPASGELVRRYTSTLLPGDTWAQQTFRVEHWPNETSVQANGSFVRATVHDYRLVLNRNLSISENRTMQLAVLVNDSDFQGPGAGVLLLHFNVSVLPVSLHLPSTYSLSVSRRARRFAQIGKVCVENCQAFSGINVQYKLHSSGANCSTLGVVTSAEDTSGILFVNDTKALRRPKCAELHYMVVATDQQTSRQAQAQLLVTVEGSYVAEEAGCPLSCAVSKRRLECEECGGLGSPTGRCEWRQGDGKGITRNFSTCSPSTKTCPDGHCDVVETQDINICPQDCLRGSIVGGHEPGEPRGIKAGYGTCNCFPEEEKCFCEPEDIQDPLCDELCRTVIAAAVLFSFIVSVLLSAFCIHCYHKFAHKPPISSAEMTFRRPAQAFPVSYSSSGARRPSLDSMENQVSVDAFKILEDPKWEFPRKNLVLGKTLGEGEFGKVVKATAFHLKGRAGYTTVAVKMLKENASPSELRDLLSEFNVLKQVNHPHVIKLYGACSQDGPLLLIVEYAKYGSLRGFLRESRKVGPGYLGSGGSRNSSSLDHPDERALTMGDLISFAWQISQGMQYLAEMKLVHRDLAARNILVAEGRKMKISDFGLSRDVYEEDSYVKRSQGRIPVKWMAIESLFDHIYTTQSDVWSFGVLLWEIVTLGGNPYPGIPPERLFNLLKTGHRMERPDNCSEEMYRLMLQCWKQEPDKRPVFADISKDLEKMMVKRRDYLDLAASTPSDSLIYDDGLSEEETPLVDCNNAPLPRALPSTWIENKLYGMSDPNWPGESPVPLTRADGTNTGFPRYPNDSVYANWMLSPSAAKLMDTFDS
c-Src, sequence (P12931 whole entry, species assumed): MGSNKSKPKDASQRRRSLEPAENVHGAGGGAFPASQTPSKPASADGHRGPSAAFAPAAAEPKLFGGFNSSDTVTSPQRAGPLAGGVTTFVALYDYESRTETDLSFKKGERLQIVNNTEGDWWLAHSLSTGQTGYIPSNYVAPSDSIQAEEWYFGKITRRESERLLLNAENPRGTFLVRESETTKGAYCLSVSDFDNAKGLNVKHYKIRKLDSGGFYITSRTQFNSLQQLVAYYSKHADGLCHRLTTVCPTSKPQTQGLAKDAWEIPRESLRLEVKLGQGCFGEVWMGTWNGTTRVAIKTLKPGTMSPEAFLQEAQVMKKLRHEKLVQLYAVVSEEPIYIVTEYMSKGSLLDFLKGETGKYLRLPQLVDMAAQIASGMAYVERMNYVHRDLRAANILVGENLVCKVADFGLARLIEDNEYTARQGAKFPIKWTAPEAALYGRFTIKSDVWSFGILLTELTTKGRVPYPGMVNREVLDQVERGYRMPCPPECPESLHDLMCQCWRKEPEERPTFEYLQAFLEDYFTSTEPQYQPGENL

`Cc1cccc(NC(=O)Nc2ccc(Oc3ncnc4sc5c(c34)CCCC5)cc2)c1` [Compound 21b]: the inhibition at 10 µM at c-Raf came to 35%; on c-Kit it was 81%; on RET, 87%; on c-Src, 7%. Further, the “Active caspase 3 levels in EAC solid tumor” value in the data set on active caspase 3 was “increased active caspase 3 levels”. Moreover, the “%MVD in EAC solid tumor” value in the data set with CD31 and CD34 (% MVD) was “reduction of %MVD”. Besides, the “Brain Index” value in data set [1] (5 mg/kg/day po) was 0.0164 ± 0.004; in [1] (10 mg/kg/day po) it was 0.0167 ± 0.004. Also, the “Heart Index” value stood at 0.0048 ± 0.0014 in [1] (5 mg/kg/day po) and 0.0046 ± 0.0017 in [1] (10 mg/kg/day po). For the same compound, the “Kidney Index” value was determined as 0.012 ± 0.003 in data set [1] (5 mg/kg/day po) and 0.011 ± 0.003 in data set [1] (10 mg/kg/day po). Further, the “Liver Index” value in data set [1] (5 mg/kg/day po) is recorded as 0.049 ± 0.01; in [1] (10 mg/kg/day po) it was 0.051 ± 0.017. In addition, the “Histopathological examination of liver, kidney, heart and brain samples” value in data set [1] (10 mg/kg, EAC solid tumor bearing mice (40x)) was “focally degenerated hepatocytes”. For the same compound, the “Toxicity (overall statement)” value in data set [1] (oral, 5 and 10 mg/kg/day for 8 consecutive days) was “did not show any noticeable toxicity”. Moreover, the “Tumor Index” value in [2] (5 mg/kg/day po, 8 consecutive days, mean ± SD, n = 6) is 0.041 ± 0.016. Besides, the “TGI (%)” value in [2] (5 mg/kg/day po) came out at 70.7%; in data set [2] (10 mg/kg/day po), 86.4%. Also, the “Histopathological examination of EAC tumor sections (necrosis)” value in data set [2] (5 mg/kg) is given as “mild focal necrosis”; in data set [2] (10 mg/kg) it was “moderate diffuse necrosis”. Also, the “Antiangiogenic effect in Miles vascular permeability assay” value in data set [3] is listed as “confirmed the antiangiogenic effects”.
As for `COc1cccc(NC(=O)Nc2ccc(Oc3ncnc4sc5c(c34)CCCC5)cc2)c1` [Compound 21c], the inhibition at 10 µM came to 26% at c-Raf, 83% on c-Kit, 91% at RET and 8% at c-Src.
